Laboratory results as given in patent publication US10815200B2, “18F—tagged inhibitors of prostate specific membrane antigen (PSMA) and their use as imaging agents for prostate cancer” (DEUTSCHES KREBSFORSCHUNGSZENTRUM, priority 2015, dated 2020).
Square brackets hold non-standard residues; d marks the D form. Peptide text beside a SMILES is read from it. * marks the point of attachment. X1 = O=C(O)CCC(NC(=O)NC(CCCCN*)C(=O)O)C(=O)O; 2Nal = N[CH](Cc1ccc2ccccc2c1)C(=O)O; Nicotinoyl(6-F) = O=C(c1ccc(F)nc1)*; 4Amb = NCc1ccc(C(=O)O)cc1

Columns and labels:
PSMA = biological target: T1, PSMA (Homo sapiens, UniProt Q04609); experiment: Competitive cell binding assay (binding affinity) on LNCaP cells against 68Ga-labeled [Glu-urea-Lys(Ahx)]2-HBED-CC; settings: competition with 68Ga-labeled [Glu-urea-Lys(Ahx)]2-HBED-CC, non-radioactive reference compounds
T1 construct: host or cells: LNCaP cells
T1 sequence (Q04609 whole entry): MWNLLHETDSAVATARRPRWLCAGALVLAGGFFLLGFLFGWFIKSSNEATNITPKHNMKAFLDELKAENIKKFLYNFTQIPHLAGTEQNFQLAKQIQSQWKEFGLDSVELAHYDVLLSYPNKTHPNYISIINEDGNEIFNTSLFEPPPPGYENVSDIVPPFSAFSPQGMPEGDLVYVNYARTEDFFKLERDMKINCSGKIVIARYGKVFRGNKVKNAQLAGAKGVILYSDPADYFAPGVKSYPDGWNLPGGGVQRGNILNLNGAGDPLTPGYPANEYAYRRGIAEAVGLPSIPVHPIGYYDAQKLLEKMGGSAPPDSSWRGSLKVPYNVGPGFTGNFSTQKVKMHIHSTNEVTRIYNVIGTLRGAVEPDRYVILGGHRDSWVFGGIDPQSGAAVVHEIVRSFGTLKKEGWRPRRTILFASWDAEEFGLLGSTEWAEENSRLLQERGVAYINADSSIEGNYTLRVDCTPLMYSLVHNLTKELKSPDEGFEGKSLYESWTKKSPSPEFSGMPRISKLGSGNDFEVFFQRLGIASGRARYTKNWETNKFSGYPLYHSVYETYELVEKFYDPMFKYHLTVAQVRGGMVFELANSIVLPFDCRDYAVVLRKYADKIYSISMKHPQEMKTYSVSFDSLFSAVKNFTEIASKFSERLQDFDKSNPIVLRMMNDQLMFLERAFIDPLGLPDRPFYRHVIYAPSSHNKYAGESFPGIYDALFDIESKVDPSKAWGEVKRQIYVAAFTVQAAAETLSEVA
Experimental: For binding studies and in vivo experiments LNCaP cells (metastatic lesion of human prostatic adenocarcinoma, ATCC CRL-1740) were cultured in RPMI medium supplemented with 10% fetal calf serum and Glutamax (PAA, Austria). During cell culture, cells were grown at 37° C. in an incubator with humidified air, equilibrated with 5% CO2. The cells were harvested using trypsin-ethylenediaminetetraacetic acid (trypsin-1.5 EDTA; 0.25% trypsin, 0.02% EDTA, all from PAA, Austria) and washed with PBS.
The competitive cell binding assay and internalization experiments were performed as described previously (Eder et al. Bioconjugate Chem. 2012, 23 (4), 688-697). Briefly, the respective cells (10^5 per well) were incubated with the radioligand (^68Ga-labeled [Glu-urea-Lys(Ahx)]2-HBED-CC (Schafer et al. EJNMMI Research 2012, 2:23 doi:10.1186/2191-219X-2-23))) in the presence of 12 different concentrations of analyte (0-5000 nM, 100 μL/well). After incubation, washing was carried out using a multiscreen vacuum manifold (Millipore, Billerica, Mass.). Cell-bound radioactivity was measured using a gamma counter (Packard Cobra II, GMI, Minnesota, USA). The 50% inhibitory concentration (IC50) was calculated by fitting the data using a nonlinear regression algorithm (GraphPad Software). Experiments were performed three times. Reference is made to Table A below.

LNCaP cells = experiment: Specific cell uptake and internalization in LNCaP cells; type: cell-based, human; settings: for Cell surface / Internalised: 30 nM radiolabeled compound, 45 min, 37° C., specific (PMPA block); for Internalized fraction: (Internalized activity/total activity)*100
Experimental: During cell culture, cells were grown at 37° C. in an incubator with humidified air, equilibrated with 5% CO2. […] To determine the specific cell uptake and internalization, 10^5 cells were seeded in poly-L-lysine coated 24-well cell culture plates 24 h before incubation. After washing, the cells were incubated with 30 nM of the radiolabeled compounds for 45 min at 37° C. […] Cellular uptake was terminated by washing 3 times with 1 mL of ice-cold PBS. […] The cells were washed with 1 mL of ice-cold PBS and lysed using 0.3 N NaOH (0.5 mL). The surface-bound and the internalized fractions were measured in a gamma counter. The cell uptake was calculated as percent of the initially added radioactivity bound to 10^5 cells [% ID/10^5 cells].

SMILES | IC50 (PSMA) | Cell surface (LNCaP cells) | Internalised (LNCaP cells) | Internalized fraction (LNCaP cells)
O=C(O)CC[C@H](NC(=O)N[C@@H](CCCCNC(=O)[C@@H](Cc1ccc2ccccc2c1)NC(=O)CC[C@@H](NC(=O)[C@@H](CCC(=O)O)NC(=O)c1ccnc(F)c1)C(=O)O)C(=O)O)C(=O)O [PSMA-1012, (Glu)-(Urea)-(Lys)-(2-Naphthylalanine)-(γGlu)-(Glu)-FN] | 7 nM |  |  | 
O=C(O)CCC(NC(=O)NC(CCCCNC(=O)C(Cc1ccc2ccccc2c1)NC(=O)CCC(NC(=O)C(CCC(=O)O)NC(=O)C(CCC(=O)O)NC(=O)c1ccc(F)nc1)C(=O)O)C(=O)O)C(=O)O (centres unmarked) [PSMA-1020, (Glu)-(Urea)-(Lys)-(2-Nal)-(γGlu)-(Glu)-(Glu)-FN] | 9 nM |  |  | 
O=C(O)CCC(NC(=O)NC(CCCCNC(=O)C(Cc1ccc2ccccc2c1)NC(=O)C1CCC(CNC(=O)C(CCC(=O)O)NC(=O)C(CCC(=O)O)NC(=O)c2ccc(F)nc2)CC1)C(=O)O)C(=O)O (centres unmarked) [PSMA-1019, (Glu)-(Urea)-(Lys)-(2-Nal)-(Chx)-(Glu)-(Glu)-FN] | 12 nM |  |  | 
O=C(O)CC[C@@H](NC(=O)N[C@H](CCCCNC(=O)[C@@H](Cc1ccc2ccccc2c1)NC(=O)c1ccc(CNC(=O)[C@@H](CCC(=O)O)NC(=O)c2ccnc([18F])c2)cc1)C(=O)O)C(=O)O [PSMA-1015, (Glu)-(Urea)-(Lys)-(2-Nal)-(Bn)-(Glu)-FN] |  | 14.3 % ID/10^5 cells | 6.0 % ID/10^5 cells | 30%
O=C(O)CCC(NC(=O)NC(CCCCNC(=O)C(Cc1ccc2ccccc2c1)NC(=O)c1ccc(CNC(=O)C(CNC(=O)C(CNC(=O)c2ccc(F)nc2)S(=O)(=O)O)S(=O)(=O)O)cc1)C(=O)O)C(=O)O (centres unmarked) [PSMA-1027, (Glu)-(Urea)-(Lys)-(2-Nal)-(Bn)-(Sala)-(Sala)-FN] | 7 nM |  |  | 
O=C(O)CCC(NC(=O)NC(CCCCNC(=O)C(Cc1ccc2ccccc2c1)NC(=O)c1ccc(CNC(=O)C(CCC(=O)O)NC(=O)C(CCC(=O)O)NC(=O)C(CCC(=O)O)NC(=O)c2ccc([18F])nc2)cc1)C(=O)O)C(=O)O (centres unmarked) [PSMA-1018, (Glu)-(Urea)-(Lys)-(2-Nal)-(Bn)-(Glu)-(Glu)-(Glu)-FN] |  | 1.1 % ID/10^5 cells | 0.9 % ID/10^5 cells | 45%
O=C(O)CCC(NC(=O)NC(CCCCNC(=O)C(Cc1ccc2ccccc2c1)NC(=O)c1ccc(CNC(=O)C(CNC(=O)C(CNC(=O)c2ccc([18F])nc2)S(=O)(=O)O)S(=O)(=O)O)cc1)C(=O)O)C(=O)O (centres unmarked) [PSMA-1027, (Glu)-(Urea)-(Lys)-(2-Nal)-(Bn)-(Sala)-(Sala)-FN] |  | 0.9 % ID/10^5 cells | 1.4 % ID/10^5 cells | 60%
O=C(O)CCC(NC(=O)NC(CCCCNC(=O)C(Cc1ccc2ccccc2c1)NC(=O)CCC(NC(=O)C(CCC(=O)O)NC(=O)C(CCC(=O)O)NC(=O)c1ccc([18F])nc1)C(=O)O)C(=O)O)C(=O)O (centres unmarked) [PSMA-1020, (Glu)-(Urea)-(Lys)-(2-Nal)-(γGlu)-(Glu)-(Glu)-FN] |  | 6.8 % ID/10^5 cells | 1.5 % ID/10^5 cells | 18%
O=C(O)CCC(NC(=O)NC(CCCCNC(=O)C(Cc1ccc2ccccc2c1)NC(=O)c1ccc(CNC(=O)C(CCC(=O)O)NC(=O)C(CCC(=O)O)NC(=O)c2ccc(F)nc2)cc1)C(=O)O)C(=O)O [PSMA-1024, (Glu)-(Urea)-(Lys)-(2-Nal)-(Bn)-(D-Glu)-(Glu)-FN] | 8 nM |  |  | 
O=C(O)CC[C@@H](NC(=O)N[C@H](CCCCNC(=O)[C@@H](Cc1ccc2ccccc2c1)NC(=O)[C@@H](CCC(=O)O)NC(=O)[C@@H](CCC(=O)O)NC(=O)c1ccnc([18F])c1)C(=O)O)C(=O)O [PSMA-1011, (Glu)-(Urea)-(Lys)-(2-Naphthylalanine)-(Glu)-(Glu)-FN] |  | 4.1 % ID/10^5 cells | 0.7 % ID/10^5 cells | 15%
O=C(O)CC[C@@H](NC(=O)N[C@H](CCCCNC(=O)[C@@H](Cc1ccc2ccccc2c1)NC(=O)c1ccc(CNC(=O)[C@@H](CCC(=O)O)NC(=O)c2ccnc(F)c2)cc1)C(=O)O)C(=O)O [PSMA-1015, (Glu)-(Urea)-(Lys)-(2-Nal)-(Bn)-(Glu)-FN] | 4 nM |  |  | 
O=C(O)CCC(NC(=O)NC(CCCCNC(=O)C(Cc1ccc2ccccc2c1)NC(=O)c1ccc(CNC(=O)C(CCC(=O)O)NC(=O)C(CCC(=O)O)NC(=O)c2ccc([18F])nc2)cc1)C(=O)O)C(=O)O [PSMA-1023, (Glu)-(Urea)-(Lys)-(2-Nal)-(Bn)-(D-Glu)-(D-Glu)-FN] |  | 6.5 % ID/10^5 cells | 3.2 % ID/10^5 cells | 33%
O=C(O)CC[C@H](NC(=O)N[C@@H](CCCCNC(=O)[C@@H](Cc1ccc2ccccc2c1)NC(=O)CC[C@@H](NC(=O)[C@@H](CCC(=O)O)NC(=O)c1ccnc([18F])c1)C(=O)O)C(=O)O)C(=O)O [PSMA-1012, (Glu)-(Urea)-(Lys)-(2-Naphthylalanine)-(γGlu)-(Glu)-FN] |  | 6.9 % ID/10^5 cells | 2.7 % ID/10^5 cells | 28%
O=C(O)CC[C@@H](NC(=O)N[C@H](CCCCNC(=O)[C@@H](Cc1ccc2ccccc2c1)NC(=O)[C@@H](CCC(=O)O)NC(=O)[C@@H](CCC(=O)O)NC(=O)c1ccnc(F)c1)C(=O)O)C(=O)O [PSMA-1011, (Glu)-(Urea)-(Lys)-(2-Naphthylalanine)-(Glu)-(Glu)-FN] | 7 nM |  |  | 
O=C(O)CCC(NC(=O)NC(CCCCNC(=O)C(Cc1ccc2ccccc2c1)NC(=O)c1ccc(CNC(=O)C(CCC(=O)O)NC(=O)C(CCC(=O)O)NC(=O)C(CCC(=O)O)NC(=O)c2ccc(F)nc2)cc1)C(=O)O)C(=O)O (centres unmarked) [PSMA-1018, (Glu)-(Urea)-(Lys)-(2-Nal)-(Bn)-(Glu)-(Glu)-(Glu)-FN] ({Nicotinoyl(6-F)}-EEE[4Amb][2Nal]-X1; configuration not given here) | 14 nM |  |  | 
O=C(O)CCC(NC(=O)NC(CCCCNC(=O)C(Cc1ccc2ccccc2c1)NC(=O)CCC(NC(=O)CCC(NC(=O)c1ccc([18F])nc1)C(=O)O)C(=O)O)C(=O)O)C(=O)O (centres unmarked) [PSMA-1022, (Glu)-(Urea)-(Lys)-(2-Nal)-(γGlu)-(γGlu)-FN] |  | 3.5 % ID/10^5 cells | 1.0 % ID/10^5 cells | 22%
O=C(O)CCC(NC(=O)NC(CCCCNC(=O)C(Cc1ccc2ccccc2c1)NC(=O)C1CCC(CNC(=O)C(CCC(=O)O)NC(=O)C(CCC(=O)O)NC(=O)c2ccc([18F])nc2)CC1)C(=O)O)C(=O)O (centres unmarked) [PSMA-1019, (Glu)-(Urea)-(Lys)-(2-Nal)-(Chx)-(Glu)-(Glu)-FN] |  | 5.5 % ID/10^5 cells | 1.9 % ID/10^5 cells | 26%
O=C(O)CCC(NC(=O)NC(CCCCNC(=O)C(Cc1ccc2ccccc2c1)NC(=O)c1ccc(CNC(=O)C(CNC(=O)c2ccc([18F])nc2)S(=O)(=O)O)cc1)C(=O)O)C(=O)O (centres unmarked) [PSMA-1026, (Glu)-(Urea)-(Lys)-(2-Nal)-(Bn)-(Sala)-FN] |  | 1.3 % ID/10^5 cells | 1.3 % ID/10^5 cells | 50%
O=C(O)CCC(NC(=O)NC(CCCCNC(=O)C(Cc1ccc2ccccc2c1)NC(=O)c1ccc(CNC(=O)C(CCC(=O)O)NC(=O)C(CCC(=O)O)NC(=O)c2ccc([18F])nc2)cc1)C(=O)O)C(=O)O [PSMA-1024, (Glu)-(Urea)-(Lys)-(2-Nal)-(Bn)-(D-Glu)-(Glu)-FN] |  | 5.3 % ID/10^5 cells | 2.1 % ID/10^5 cells | 28%
